Assay results: US9233983B2, “Substituted hetero-bicyclic compounds, compositions and medicinal applications thereof” (ADVINUS THERAPEUTICS LIMITED, priority 2012, dated 2016)
pIC50: −log10 of the molar value. Read-outs that look alike come from different tables or passages of the source.

Legend:
mouse splenocytes = experiment: Inhibition of B Cell Activation as Measured by CD69 Expression in Mouse Splenocytes; type: cell-based; settings: Splenocyte; for pIC50: C57/BL6 splenocytes, 3 ug/mL goat anti-mouse IgM, 18-20 hrs, CD69+ve cells within CD19, read-out: Mouse spleenocyte IC50
Procedure: Inhibition of B Cell Activation as Measured by CD69 Expression in Mouse Splenocytes:
To test the effect of BTK inhibitors in suppressing B-cell receptor (BCR) mediated activation of B cells, we developed a flow cytometry based assay to analyze CD69 expression in B cell population among total splenocyte from the mouse. […] Finally, cell were cultured in RPMI medium with 10% FBS.
Test compounds were diluted half log starting from 2 mM in 100% DMSO (200×). 1×10^5 splenocytes were incubated with 1 uL of diluted test compounds in 200 uL culture medium in a U-bottom 96 well plate (Greiner) at 37° C. with 5% CO2 for 30 mins. Control wells received 1 uL of 100% DMSO without any compound. The cells were stimulated with 3 ug/mL goat anti-mouse IgM (Sigma, cat#M8644) and incubated for 18-20 hrs. […] Then the cells were washed 3 times with PBS with 1% FBS and analyzed by Guava Easycyte Mini flow cytometer system (Millipore). Flow cytometry data were analyzed using Weasel software (WEHI, Melbourne). First B cells were gated using CD19 markers. Then expression of CD69 was analyzed as percentage of CD69+ve cells within CD19. Percent activity for each data point was calculated using following formula: […]
Percentage activity was fit using sigmoid dose response with variable slope logistic equation in Graph-pad Prism 5 software to determine inhibition constant 50 (IC50).

[1] = molecular target: human Bruton's Tyrosine Kinase (Btk) (Homo sapiens (Human), UniProt Q06187); experiment: Recombinant Human Bruton's Tyrosine Kinase (Btk) Inhibition Assay (HTRF KinEASE-TK); type: biochemical; settings: read-out: hBTK IC50
Chain of human Bruton's Tyrosine Kinase (Btk) (Q06187 whole entry): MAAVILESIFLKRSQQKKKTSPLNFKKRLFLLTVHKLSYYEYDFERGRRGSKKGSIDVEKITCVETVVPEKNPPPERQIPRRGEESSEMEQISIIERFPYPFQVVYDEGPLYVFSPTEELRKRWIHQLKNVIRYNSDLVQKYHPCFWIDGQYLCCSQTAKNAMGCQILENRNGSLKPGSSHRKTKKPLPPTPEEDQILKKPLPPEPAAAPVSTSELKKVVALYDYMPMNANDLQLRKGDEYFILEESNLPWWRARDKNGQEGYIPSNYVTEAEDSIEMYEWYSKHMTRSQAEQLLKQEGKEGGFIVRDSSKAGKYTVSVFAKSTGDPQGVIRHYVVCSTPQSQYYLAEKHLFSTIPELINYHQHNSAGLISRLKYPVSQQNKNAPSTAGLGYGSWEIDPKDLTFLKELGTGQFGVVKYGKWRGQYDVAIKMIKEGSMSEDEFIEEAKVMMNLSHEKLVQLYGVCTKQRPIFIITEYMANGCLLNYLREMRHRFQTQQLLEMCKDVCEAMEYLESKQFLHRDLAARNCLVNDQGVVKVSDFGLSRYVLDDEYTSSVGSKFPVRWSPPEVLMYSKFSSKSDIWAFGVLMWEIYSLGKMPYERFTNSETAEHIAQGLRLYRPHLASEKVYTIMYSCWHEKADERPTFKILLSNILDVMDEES

[2] = 20 ng/ml rhBtk, 77 μM ATP (KM), 1 μM TK-Biotin substrate, 90 min

Row | Compound | pIC50 (mouse splenocytes) | pIC50 [1, 2] | IC50 (mouse splenocytes; Mus musculus, read-out: Mouse spleenocyte IC50 (nM)) [nM] | pIC50 [1]
1 | CN1CCN(Cc2ccc(-c3cc4c(-c5cccc(N6CCOc7cc(C8CC8)ccc7C6=O)c5CO)ncnc4[nH]3)cc2)CC1 [Example B-1, 8-cyclopropyl-4-[2-(hydroxymethyl)-3-[6-[4-[(4-methylpiperazin-1-yl)methyl]phenyl]-7H-pyrrolo[2,3-d]pyrimidin-4-yl]phenyl]-2,3-dihydro-1,4-benzoxazepin-5-one] | 7.40 | 8.22 | – | –
2 | Cc1c(-c2ncnc3[nH]c(-c4ccc(CN5CCN(C)CC5)cc4)cc23)cccc1N1CCOc2cc(C3CC3)ccc2C1=O [Example B-2] | 6.70 | 7.51 | – | –
3 | CC1(O)CCN(Cc2ccc(-c3cc4c(-c5cccc(N6CCOc7cc(C8CC8)ccc7C6=O)c5CO)ncnc4[nH]3)cc2)CC1 [Example B-6, 8-cyclopropyl-4-[2-(hydroxymethyl)-3-[6-[4-[(4-hydroxy-4-methyl-1-piperidyl)methyl]phenyl]-7H-pyrrolo[2,3-d]pyrimidin-4-yl]phenyl]-2,3-dihydro-1,4-benzoxazepin-5-one] | – | – | 81 | 8.15
4 | CN1CCN(Cc2ccc(-c3cc4c(-c5cccc(-n6ncc7cc(C8CC8)ccc7c6=O)c5CO)ncnc4[nH]3)cc2)CC1 [Example B-10, 6-cyclopropyl-2-[2-(hydroxymethyl)-3-[6-[4-[(4-methylpiperazin-1-yl)methyl]phenyl]-7H-pyrrolo[2,3-d]pyrimidin-4-yl]phenyl]phthalazin-1-one] | 7.70 | 8.70 | – | –
5 | CN1CCN(Cc2ccc(-c3cc4c(-c5cccc(N6CCOc7cc(C8CC8)ccc7C6=O)c5CO)ccnc4[nH]3)cc2)CC1 [Example B-13, 8-cyclopropyl-4-[2-(hydroxymethyl)-3-[2-[4-[(4-methylpiperazin-1-yl)methyl]phenyl]-1H-pyrrolo[2,3-b]pyridin-4-yl]phenyl]-2,3-dihydro-1,4-benzoxazepin-5-one] | 8.05 | 8.52 | – | –
6 | N#CC1CCN(Cc2ccc(-c3cc4c(-c5cccc(N6CCOc7cc(C8CC8)ccc7C6=O)c5CO)ncnc4[nH]3)cc2)CC1 [Example B-14, 1-[[4-[4-[3-(8-cyclopropyl-5-oxo-2,3-dihydro-1,4-benzoxazepin-4-yl)-2-(hydroxymethyl)phenyl]-7H-pyrrolo[2,3-d]pyrimidin-6-yl]phenyl]methyl]piperidine-4-carbonitrile] | 7.02 | 8.15 | – | –
7 | CCN1CCN(Cc2ccc(-c3cc4c(-c5cccc(N6CCOc7cc(C8CC8)ccc7C6=O)c5CO)ccnc4[nH]3)cc2)CC1 [Example B-16, 8-cyclopropyl-4-[3-[2-[4-[(4-ethylpiperazin-1-yl)methyl]phenyl]-1H-pyrrolo[2,3-b]pyridin-4-yl]-2-(hydroxymethyl)phenyl]-2,3-dihydro-1,4-benzoxazepin-5-one] | 7.77 | 8.40 | – | –
8 | CC1(O)CN(Cc2ccc(-c3cc4c(-c5cccc(N6CCOc7cc(C8CC8)ccc7C6=O)c5CO)ccnc4[nH]3)cc2)C1 [Example B-17] | 7.13 | 8.22 | – | –
9 | CCN1CC(n2cc(-c3cc4c(-c5cccc(N6CCOc7cc(C8CC8)ccc7C6=O)c5CO)ccnc4[nH]3)cn2)C1 [Example D-10, 8-cyclopropyl-4-[3-[2-[1-(1-ethylazetidin-3-yl)pyrazol-4-yl]-1H-pyrrolo[2,3-b]pyridin-4-yl]-2-(hydroxymethyl)phenyl]-2,3-dihydro-1,4-benzoxazepin-5-one] | 7.12 | – | – | –
10 | O=C1c2c(F)cc(C3CC3)cc2OCCN1c1cc(F)cc(-c2ccnc3[nH]c(C4=CCN(C5COC5)CC4)cc23)c1CO [Example P-16, 8-cyclopropyl-6-fluoro-4-[5-fluoro-2-(hydroxymethyl)-3-[2-[1-(oxetan-3-yl)-3,6-dihydro-2H-pyridin-4-yl]-1H-pyrrolo[2,3-b]pyridin-4-yl]phenyl]-2,3-dihydro-1,4-benzoxazepin-5-one] | 8.05 | – | – | –
11 | CS(=O)(=O)N1CC=C(c2cc3c(-c4ccnc(N5CCOc6cc(C7CC7)cc(F)c6C5=O)c4CO)ccnc3[nH]2)CC1 [Example P-25, 8-cyclopropyl-6-fluoro-4-[3-(hydroxymethyl)-4-[2-(1-methylsulfonyl-3,6-dihydro-2H-pyridin-4-yl)-1H-pyrrolo[2,3-b]pyridin-4-yl]-2-pyridyl]-2,3-dihydro-1,4-benzoxazepin-5-one] | – | 6.21 | – | –
12 | O=C1c2c(F)cc(C3CC3)cc2OCCN1c1cccc(-c2ccnc3[nH]c(-c4ccc(OCCN5CCC5)cn4)cc23)c1CO [Example Q-2, 4-[3-[2-[5-[2-(azetidin-1-yl)ethoxy]-2-pyridyl]-1H-pyrrolo[2,3-b]pyridin-4-yl]-2-(hydroxymethyl)phenyl]-8-cyclopropyl-6-fluoro-2,3-dihydro-1,4-benzoxazepin-5-one] | – | 8.51 | – | –

Continued by rising pIC50 [1, 2], values first:

Row | pIC50 (mouse splenocytes) | pIC50 [1, 2] | Compound | IC50 (mouse splenocytes; Mus musculus, read-out: Mouse spleenocyte IC50 (nM)) [nM] | pIC50 [1]
13 | 7.22 | 8.10 | O=C1c2ccc(C3CC3)cc2OCCN1c1cccc(-c2ncnc3[nH]c(-c4ccc(CN5CCOCC5)cc4)cc23)c1CO [Example B-5, 8-cyclopropyl-4-[2-(hydroxymethyl)-3-[6-[4-(morpholinomethyl)phenyl]-7H-pyrrolo[2,3-d]pyrimidin-4-yl]phenyl]-2,3-dihydro-l,4-benzoxazepin-5-one] | – | –
14 | 7.00 | 8.15 | Cc1c(-c2ncnc3[nH]c(-c4ccc(CN5CCNCC5)cc4)cc23)cccc1N1CCOc2cc(C3CC3)ccc2C1=O [Example A-1, 8-cyclopropyl-4-[2-methyl-3-[6-[4-(piperazin-1-ylmethyl)phenyl]-7H-pyrrolo[2,3-d]pyrimidin-4-yl]phenyl]-2,3-dihydro-1,4-benzoxazepin-5-one] | – | –
15 | 6.78 | 8.15 | Cc1c(-c2ncnc3[nH]c(-c4ccc(CN5CCNCC5)cc4)cc23)cccc1N1CCc2cc(C3CC3)ccc2C1=O [Example A-2, 6-cyclopropyl-2-[2-methyl-3-[6-[4-(piperazin-1-ylmethyl)phenyl]-7H-pyrrolo[2,3-d]pyrimidin-4-yl]phenyl]-3,4-dihydroisoquinolin-1-one] | – | –
16 | 7.28 | 8.22 | CCN1CCN(Cc2ccc(-c3cc4c(-c5cccc(N6CCOc7cc(C8CC8)ccc7C6=O)c5CO)ncnc4[nH]3)cc2)CC1 [Example B-7, 8-cyclopropyl-4-[3-[6-[4-[(4-ethylpiperazin-1-yl)methyl]phenyl]-7H-pyrrolo[2,3-d]pyrimidin-4-yl]-2-(hydroxymethyl)phenyl]-2,3-dihydro-1,4-benzoxazepin-5-one] | – | –
17 | – | 8.52 | CN1CCN(c2ccc(-c3cc4c(-c5cccc(N6CCOc7cc(C8CC8)ccc7C6=O)c5CO)ccnc4[nH]3)nc2)CC1 [Example S-3, 8-cyclopropyl-4-[2-(hydroxymethyl)-3-[2-[5-(4-methylpiperazin-1-yl)-2-pyridyl]-1H-pyrrolo[2,3-b]pyridin-4-yl]phenyl]-2,3-dihydro-1,4-benzoxazepin-5-one] | – | –
18 | – | 8.54 | O=C1c2c(F)cc(C3CC3)cc2OCCN1c1cccc(-c2ccnc3[nH]c(-c4ccc(OCCN5CCOCC5)cn4)cc23)c1CO [Example Q-1, 8-cyclopropyl-6-fluoro-4-[2-(hydroxymethyl)-3-[2-[5-(2-morpholinoethoxy)-2-pyridyl]-1H-pyrrolo[2,3-b]pyridin-4-yl]phenyl]-2,3-dihydro-1,4-benzoxazepin-5-one] | – | –
19 | – | 9.00 | O=C(N1CC=C(c2cc3c(-c4cccc(N5CCOc6cc(C7CC7)cc(F)c6C5=O)c4CO)ccnc3[nH]2)CC1)N1CCC1 [Example P-13, 4-[3-[2-[1-(azetidine-1-carbonyl)-3,6-dihydro-2H-pyridin-4-yl]-1H-pyrrolo[2,3-b]pyridin-4-yl]-2-(hydroxymethyl)phenyl]-8-cyclopropyl-6-fluoro-2,3-dihydro-1,4-benzoxazepin-5-one] | – | –
